# Experimental data from paper PMC9186362, “Design and biological evaluation of substituted 5,7-dihydro-6H-indolo[2,3-c]quinolin-6-one as novel selective Haspin inhibitors” (Journal of Enzyme Inhibition and Medicinal Chemistry, 2022).
# Key:
# Test in all cases: SelectScreen ZLYTE
# Assay type in all cases: biochemical
# GSK3A (GSK3 alpha) = target: T1, GSK3A (GSK3 alpha) (Homo sapiens, UniProt P49840); conditions: ATP Km, read-out: Percentage of inhibition
# T1 construct: purchased Life Technologies (SelectScreen service)
# Procedure, shortened: (§1)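 A kinome-wide single-concentration screen (1 μM) supplied these numbers, given as percent inhibition.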
# KIT V559D V654A = KIT V559D V654A (Homo sapiens, UniProt P10721, V559D/V654A); conditions: ATP Km, read-out: Percentage of inhibition
# Procedure, shortened: as §1
# PLK2 = target: T2, PLK2 (Homo sapiens, UniProt Q9NYY3); conditions: ATP Km, read-out: Percentage of inhibition
# T2 construct: purchased Life Technologies (SelectScreen service)
# Procedure, shortened: as §1
# MAPK10 (JNK3) = target: T3, MAPK10 (JNK3) (Homo sapiens, UniProt P53779); conditions: ATP 100 µM, read-out: Percentage of inhibition
# T3 construct: purchased Life Technologies
# Procedure, shortened: as §1
# NIM1K = target: T4, NIM1K (Homo sapiens, UniProt Q8IY84); conditions: ATP Km, read-out: Percentage of inhibition
# T4 construct: purchased Life Technologies (SelectScreen)
# Procedure, shortened: as §1
# MAPK3 (ERK1) = target: T5, MAPK3 (ERK1) (Homo sapiens, UniProt P27361); conditions: ATP Km, read-out: Percentage of inhibition
# T5 construct: purchased Life Technologies
# Procedure, shortened: as §1
# RET S891A = target: T6, RET S891A (Homo sapiens, UniProt P07949, S891A); conditions: ATP Km, read-out: Percentage of inhibition
# T6 construct: purchased Life Technologies
# Procedure, shortened: as §1
# FLT4 (VEGFR3) = target: T7, FLT4 (VEGFR3) (Homo sapiens, UniProt P35916); conditions: ATP Km, read-out: Percentage of inhibition
# T7 construct: purchased Life Technologies (SelectScreen service)
# Procedure, shortened: as §1
# EGFR (ErbB1) L858R = target: T8, EGFR (ErbB1) L858R (Homo sapiens, UniProt P00533, L858R); conditions: ATP Km, read-out: Percentage of inhibition
# T8 construct: purchased Life Technologies (SelectScreen Whole Panel)
# Procedure, shortened: as §1
# FLT3 = target: T9, FLT3 (Homo sapiens, UniProt P36888); conditions: ATP Km, read-out: Percentage of inhibition
# T9 construct: purchased Life Technologies
# Procedure, shortened: as §1
# PDK1 Direct = target: T10, PDK1 Direct (Homo sapiens, UniProt O15530); conditions: ATP Km, read-out: Percentage of inhibition
# T10 construct: purchased Life Technologies (SelectScreen Whole Panel service)
# Procedure, shortened: as §1
# JAK3 = target: T11, JAK3 (Homo sapiens, UniProt P52333); conditions: ATP Km, read-out: Percentage of inhibition
# T11 construct: purchased Life Technologies (SelectScreen service)
# Procedure, shortened: as §1
# PRKCB1 (PKC beta I) = target: T12, PRKCB1 (PKC beta I) (Homo sapiens, UniProt P05771); conditions: ATP Km, read-out: Percentage of inhibition
# T12 construct: purchased Life Technologies (SelectScreen)
# Procedure, shortened: as §1
# CSNK2A1 (CK2 alpha 1) = CSNK2A1 (CK2 alpha 1) (Homo sapiens, UniProt P68400); conditions: ATP Km, read-out: Percentage of inhibition
# Procedure, shortened: as §1
# CDK18/cyclin Y = target: T13, CDK18/cyclin Y (Homo sapiens, UniProt Q07002); conditions: ATP Km, read-out: Percentage of inhibition
# T13 construct: purchased Life Technologies
# Procedure, shortened: as §1
# PDK1 = PDK1 (Homo sapiens, UniProt O15530); conditions: ATP 100 µM, read-out: Percentage of inhibition
# Procedure, shortened: as §1
# EGFR (ErbB1) T790M = target: T14, EGFR (ErbB1) T790M (Homo sapiens, UniProt P00533, T790M); conditions: ATP Km, read-out: Percentage of inhibition
# T14 construct: purchased Life Technologies
# Procedure, shortened: as §1
# CAMK2A (CaMKII alpha) = CAMK2A (CaMKII alpha) (Homo sapiens, UniProt Q9UQM7); conditions: ATP Km, read-out: Percentage of inhibition
# Procedure, shortened: as §1
# EGFR (ErbB1) G719C = target: T15, EGFR (ErbB1) G719C (Homo sapiens, UniProt P00533, G719C); conditions: ATP Km, read-out: Percentage of inhibition
# T15 construct: purchased Life Technologies (SelectScreen)
# Procedure, shortened: as §1
# EGFR (ErbB1) C797S = target: T16, EGFR (ErbB1) C797S (Homo sapiens, UniProt P00533, C797S); conditions: ATP Km, read-out: Percentage of inhibition
# T16 construct: purchased Life Technologies
# Procedure, shortened: as §1
# KDR (VEGFR2) = KDR (VEGFR2) (Homo sapiens, UniProt P35968); conditions: ATP Km, read-out: Percentage of inhibition
# Procedure, shortened: as §1
# CSNK2A2 (CK2 alpha 2) = target: T17, CSNK2A2 (CK2 alpha 2) (Homo sapiens, UniProt P19784); conditions: ATP Km, read-out: Percentage of inhibition
# T17 construct: purchased Life Technologies (SelectScreen Whole Panel service)
# Procedure, shortened: as §1
# RPS6KB1 (p70S6K) = target: T18, RPS6KB1 (p70S6K) (Homo sapiens, UniProt P23443); conditions: ATP Km, read-out: Percentage of inhibition
# T18 construct: purchased Life Technologies (SelectScreen Whole Panel service)
# Procedure, shortened: as §1
# FGFR4 = FGFR4 (Homo sapiens, UniProt P22455); conditions: ATP Km, read-out: Percentage of inhibition
# Procedure, shortened: as §1
# ROCK2 = target: T19, ROCK2 (Homo sapiens, UniProt O75116); conditions: ATP Km, read-out: Percentage of inhibition
# T19 construct: purchased Life Technologies
# Procedure, shortened: as §1
# FRAP1 (mTOR) = FRAP1 (mTOR) (Homo sapiens, UniProt P42345); conditions: ATP Km, read-out: Percentage of inhibition
# Procedure, shortened: as §1
# EPHB4 = EPHB4 (Homo sapiens, UniProt P54760); conditions: ATP Km, read-out: Percentage of inhibition
# Procedure, shortened: as §1
# PTK2 (FAK) = target: T20, PTK2 (FAK) (Homo sapiens, UniProt Q05397); conditions: ATP Km, read-out: Percentage of inhibition
# T20 construct: purchased Life Technologies (SelectScreen service)
# Procedure, shortened: as §1
# PRKCA (PKC alpha) = PRKCA (PKC alpha) (Homo sapiens, UniProt P17252); conditions: ATP Km, read-out: Percentage of inhibition
# Procedure, shortened: as §1
# BTK = target: T21, BTK (Homo sapiens, UniProt Q06187); conditions: ATP Km, read-out: Percentage of inhibition
# T21 construct: purchased Life Technologies (SelectScreen service)
# Procedure, shortened: as §1
# SNF1LK2 = target: T22, SNF1LK2 (Homo sapiens, UniProt Q9H0K1); conditions: ATP Km, read-out: Percentage of inhibition
# T22 construct: purchased Life Technologies (SelectScreen service)
# Procedure, shortened: as §1
# MAPK13 (p38 delta) = MAPK13 (p38 delta) (Homo sapiens, UniProt O15264); conditions: ATP Km, read-out: Percentage of inhibition
# Procedure, shortened: as §1
# AKT1 (PKB alpha) = AKT1 (PKB alpha) (Homo sapiens, UniProt P31749); conditions: ATP Km, read-out: Percentage of inhibition
# Procedure, shortened: as §1
# TYRO3 (RSE) = TYRO3 (RSE) (Homo sapiens, UniProt Q06418); conditions: ATP Km, read-out: Percentage of inhibition
# Procedure, shortened: as §1
# MST4 = MST4 (Homo sapiens, UniProt Q9P289); conditions: ATP Km, read-out: Percentage of inhibition
# Procedure, shortened: as §1
# MINK1 = MINK1 (Homo sapiens, UniProt Q8N4C8); conditions: ATP Km, read-out: Percentage of inhibition
# Procedure, shortened: as §1
# STK24 (MST3) = STK24 (MST3) (Homo sapiens, UniProt Q9Y6E0); conditions: ATP Km, read-out: Percentage of inhibition
# Procedure, shortened: as §1
# MAP2K1 (MEK1) = target: T23, MAP2K1 (MEK1) (Homo sapiens, UniProt Q02750); conditions: ATP 100 µM, read-out: Percentage of inhibition
# T23 construct: purchased Life Technologies (SelectScreen Whole Panel)
# Procedure, shortened: as §1
# T21 sequence (Q06187 whole entry): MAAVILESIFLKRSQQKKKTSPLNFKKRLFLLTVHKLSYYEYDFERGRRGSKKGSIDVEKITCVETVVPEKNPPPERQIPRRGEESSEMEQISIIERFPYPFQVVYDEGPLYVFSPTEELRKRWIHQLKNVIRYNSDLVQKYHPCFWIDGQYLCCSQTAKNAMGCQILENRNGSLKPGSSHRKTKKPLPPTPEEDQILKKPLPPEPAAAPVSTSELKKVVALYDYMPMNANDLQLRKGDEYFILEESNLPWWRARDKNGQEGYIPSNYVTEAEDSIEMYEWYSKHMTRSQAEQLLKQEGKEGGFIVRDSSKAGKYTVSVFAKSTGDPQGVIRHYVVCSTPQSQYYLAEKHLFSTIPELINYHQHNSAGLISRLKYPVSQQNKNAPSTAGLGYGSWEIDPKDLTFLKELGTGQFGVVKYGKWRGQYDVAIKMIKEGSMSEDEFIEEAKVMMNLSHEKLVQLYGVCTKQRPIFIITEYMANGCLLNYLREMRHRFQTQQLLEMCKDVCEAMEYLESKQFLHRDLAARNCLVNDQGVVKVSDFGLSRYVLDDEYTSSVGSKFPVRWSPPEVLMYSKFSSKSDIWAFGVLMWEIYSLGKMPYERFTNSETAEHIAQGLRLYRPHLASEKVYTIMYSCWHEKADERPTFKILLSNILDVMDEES
# T2 sequence (Q9NYY3 whole entry): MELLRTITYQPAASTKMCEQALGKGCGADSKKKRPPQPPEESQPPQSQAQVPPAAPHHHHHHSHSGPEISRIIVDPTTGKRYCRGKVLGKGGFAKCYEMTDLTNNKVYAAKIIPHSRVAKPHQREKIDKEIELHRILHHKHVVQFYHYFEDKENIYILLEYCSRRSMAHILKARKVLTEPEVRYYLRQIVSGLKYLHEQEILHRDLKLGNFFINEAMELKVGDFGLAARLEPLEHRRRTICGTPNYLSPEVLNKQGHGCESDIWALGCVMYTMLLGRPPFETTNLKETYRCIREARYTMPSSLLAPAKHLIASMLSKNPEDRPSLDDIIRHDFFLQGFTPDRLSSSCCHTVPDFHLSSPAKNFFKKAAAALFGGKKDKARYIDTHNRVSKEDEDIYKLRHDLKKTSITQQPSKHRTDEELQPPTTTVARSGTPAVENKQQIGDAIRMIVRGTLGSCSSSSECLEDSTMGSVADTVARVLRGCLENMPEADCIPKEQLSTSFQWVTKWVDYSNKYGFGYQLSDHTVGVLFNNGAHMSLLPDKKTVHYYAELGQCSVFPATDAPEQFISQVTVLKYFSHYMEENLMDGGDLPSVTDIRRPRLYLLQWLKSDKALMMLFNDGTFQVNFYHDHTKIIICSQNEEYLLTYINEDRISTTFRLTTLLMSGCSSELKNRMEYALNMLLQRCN
# MST4, sequence (Q9P289 whole entry): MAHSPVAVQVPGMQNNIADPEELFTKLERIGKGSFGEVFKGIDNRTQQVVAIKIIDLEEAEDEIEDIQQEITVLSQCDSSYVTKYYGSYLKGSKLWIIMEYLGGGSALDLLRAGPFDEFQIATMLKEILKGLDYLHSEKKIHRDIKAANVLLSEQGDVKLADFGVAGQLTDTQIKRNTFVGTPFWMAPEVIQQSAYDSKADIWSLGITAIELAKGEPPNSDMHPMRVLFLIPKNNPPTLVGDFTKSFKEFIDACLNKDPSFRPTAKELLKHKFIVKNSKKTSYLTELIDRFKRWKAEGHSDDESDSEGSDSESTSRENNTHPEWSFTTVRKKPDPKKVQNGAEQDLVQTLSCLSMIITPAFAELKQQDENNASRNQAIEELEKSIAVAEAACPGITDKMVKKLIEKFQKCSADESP
# T3 sequence (P53779 whole entry): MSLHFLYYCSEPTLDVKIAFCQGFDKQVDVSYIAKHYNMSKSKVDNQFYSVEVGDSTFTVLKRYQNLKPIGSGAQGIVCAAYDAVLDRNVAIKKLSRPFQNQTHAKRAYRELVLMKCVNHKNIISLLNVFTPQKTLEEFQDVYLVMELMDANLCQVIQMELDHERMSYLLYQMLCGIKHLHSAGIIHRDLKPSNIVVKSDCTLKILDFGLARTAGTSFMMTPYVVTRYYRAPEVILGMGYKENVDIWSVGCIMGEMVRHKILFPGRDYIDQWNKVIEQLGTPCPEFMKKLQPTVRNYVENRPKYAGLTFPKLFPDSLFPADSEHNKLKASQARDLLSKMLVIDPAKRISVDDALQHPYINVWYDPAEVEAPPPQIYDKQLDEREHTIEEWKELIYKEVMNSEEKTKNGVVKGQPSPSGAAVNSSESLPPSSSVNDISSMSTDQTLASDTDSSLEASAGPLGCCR
# T20 sequence (Q05397 whole entry): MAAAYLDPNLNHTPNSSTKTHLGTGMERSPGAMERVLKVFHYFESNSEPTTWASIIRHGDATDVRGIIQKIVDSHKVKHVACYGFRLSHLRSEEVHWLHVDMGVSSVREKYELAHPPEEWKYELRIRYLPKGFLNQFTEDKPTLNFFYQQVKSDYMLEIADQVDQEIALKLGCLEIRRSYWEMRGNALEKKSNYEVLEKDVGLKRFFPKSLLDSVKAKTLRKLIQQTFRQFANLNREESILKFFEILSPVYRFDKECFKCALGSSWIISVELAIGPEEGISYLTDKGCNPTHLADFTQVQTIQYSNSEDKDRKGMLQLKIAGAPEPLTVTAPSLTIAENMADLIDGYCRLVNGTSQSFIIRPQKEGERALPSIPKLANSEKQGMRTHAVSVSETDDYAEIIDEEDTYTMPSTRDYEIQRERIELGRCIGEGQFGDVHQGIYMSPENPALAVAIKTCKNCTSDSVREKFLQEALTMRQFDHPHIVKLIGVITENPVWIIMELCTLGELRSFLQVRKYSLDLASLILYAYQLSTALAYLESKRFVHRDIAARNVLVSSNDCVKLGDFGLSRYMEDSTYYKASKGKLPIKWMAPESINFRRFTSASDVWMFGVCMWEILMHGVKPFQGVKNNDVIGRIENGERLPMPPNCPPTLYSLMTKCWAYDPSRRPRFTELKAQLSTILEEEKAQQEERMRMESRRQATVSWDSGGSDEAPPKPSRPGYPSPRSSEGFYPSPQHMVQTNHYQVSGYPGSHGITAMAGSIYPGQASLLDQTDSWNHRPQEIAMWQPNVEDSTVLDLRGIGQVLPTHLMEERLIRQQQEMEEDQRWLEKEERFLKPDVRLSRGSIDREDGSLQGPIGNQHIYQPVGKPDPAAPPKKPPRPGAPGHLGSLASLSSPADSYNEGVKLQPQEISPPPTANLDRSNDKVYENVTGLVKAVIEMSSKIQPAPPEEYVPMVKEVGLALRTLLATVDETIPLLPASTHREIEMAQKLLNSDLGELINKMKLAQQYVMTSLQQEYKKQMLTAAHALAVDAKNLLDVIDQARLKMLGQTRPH
# T9 sequence (P36888 27-993): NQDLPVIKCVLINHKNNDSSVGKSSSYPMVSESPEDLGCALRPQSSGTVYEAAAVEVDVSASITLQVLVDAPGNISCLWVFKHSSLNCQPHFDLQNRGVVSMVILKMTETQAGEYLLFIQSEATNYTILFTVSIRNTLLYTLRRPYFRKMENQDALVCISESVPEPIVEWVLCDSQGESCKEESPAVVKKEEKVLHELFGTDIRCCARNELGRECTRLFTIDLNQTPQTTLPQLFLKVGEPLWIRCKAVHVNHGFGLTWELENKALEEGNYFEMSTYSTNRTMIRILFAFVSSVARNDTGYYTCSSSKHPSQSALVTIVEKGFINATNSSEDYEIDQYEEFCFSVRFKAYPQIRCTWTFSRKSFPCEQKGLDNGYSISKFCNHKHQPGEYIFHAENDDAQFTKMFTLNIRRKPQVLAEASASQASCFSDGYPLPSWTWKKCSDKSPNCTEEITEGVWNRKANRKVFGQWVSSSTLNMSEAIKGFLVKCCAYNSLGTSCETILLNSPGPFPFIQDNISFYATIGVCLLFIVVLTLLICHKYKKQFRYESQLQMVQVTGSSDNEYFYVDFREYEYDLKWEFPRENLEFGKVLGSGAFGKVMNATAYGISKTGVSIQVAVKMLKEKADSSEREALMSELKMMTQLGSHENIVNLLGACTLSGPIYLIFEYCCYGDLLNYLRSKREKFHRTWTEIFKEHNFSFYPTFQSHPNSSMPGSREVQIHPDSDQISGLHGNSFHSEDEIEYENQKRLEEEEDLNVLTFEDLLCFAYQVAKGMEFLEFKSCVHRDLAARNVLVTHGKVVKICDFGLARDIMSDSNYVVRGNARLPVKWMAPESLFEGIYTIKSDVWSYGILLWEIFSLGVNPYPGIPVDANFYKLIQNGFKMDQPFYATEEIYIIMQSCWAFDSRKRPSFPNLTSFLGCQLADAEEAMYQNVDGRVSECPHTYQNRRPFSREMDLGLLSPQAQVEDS
# T5 sequence (P27361 whole entry): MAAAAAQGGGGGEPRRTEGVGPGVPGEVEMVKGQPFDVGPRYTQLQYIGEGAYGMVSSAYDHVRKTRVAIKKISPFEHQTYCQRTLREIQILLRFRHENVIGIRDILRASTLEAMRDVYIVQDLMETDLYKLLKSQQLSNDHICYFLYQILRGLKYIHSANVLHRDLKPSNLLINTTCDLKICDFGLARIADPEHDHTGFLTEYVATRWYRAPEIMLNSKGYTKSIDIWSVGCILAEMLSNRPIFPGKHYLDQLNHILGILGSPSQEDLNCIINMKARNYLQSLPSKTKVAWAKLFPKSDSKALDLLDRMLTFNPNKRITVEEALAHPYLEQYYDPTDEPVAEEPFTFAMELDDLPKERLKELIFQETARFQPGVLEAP
# CSNK2A1 (CK2 alpha 1), sequence (P68400 whole entry): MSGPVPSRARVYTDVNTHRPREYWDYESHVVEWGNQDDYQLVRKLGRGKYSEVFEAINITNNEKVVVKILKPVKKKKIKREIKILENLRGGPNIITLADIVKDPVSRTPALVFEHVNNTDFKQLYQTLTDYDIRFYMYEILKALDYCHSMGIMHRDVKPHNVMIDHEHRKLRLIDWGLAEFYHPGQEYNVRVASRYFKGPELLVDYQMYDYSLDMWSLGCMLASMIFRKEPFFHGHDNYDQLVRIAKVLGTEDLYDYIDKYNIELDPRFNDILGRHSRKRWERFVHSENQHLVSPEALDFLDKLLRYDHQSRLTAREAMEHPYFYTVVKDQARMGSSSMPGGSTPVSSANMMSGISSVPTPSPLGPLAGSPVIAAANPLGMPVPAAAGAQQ
smiles,measurement,setting,value
"COc1ccc2[nH]c3c(=O)[nH]c4ccc(O)cc4c3c2c1 [Compound 55, 2-Hydroxy-10-methoxy-5,7-dihydro-6H-indolo[2,3-c]quinolin-6-one]",inhibition at 1 µM,GSK3A (GSK3 alpha),82%
same,inhibition at 1 µM,KIT V559D V654A,19%
same,inhibition at 1 µM,PLK2,74%
same,inhibition at 1 µM,MAPK10 (JNK3),15%
same,inhibition at 1 µM,NIM1K,9%
same,inhibition at 1 µM,MAPK3 (ERK1),27%
same,inhibition at 1 µM,RET S891A,96%
same,inhibition at 1 µM,FLT4 (VEGFR3),72%
same,inhibition at 1 µM,EGFR (ErbB1) L858R,-1%
same,inhibition at 1 µM,FLT3,93%
same,inhibition at 1 µM,PDK1 Direct,17%
same,inhibition at 1 µM,JAK3,79%
same,inhibition at 1 µM,PRKCB1 (PKC beta I),8%
same,inhibition at 1 µM,CSNK2A1 (CK2 alpha 1),14%
same,inhibition at 1 µM,CDK18/cyclin Y,36%
same,inhibition at 1 µM,PDK1,15%
same,inhibition at 1 µM,EGFR (ErbB1) T790M,30%
same,inhibition at 1 µM,CAMK2A (CaMKII alpha),20%
same,inhibition at 1 µM,EGFR (ErbB1) G719C,8%
same,inhibition at 1 µM,EGFR (ErbB1) C797S,4%
same,inhibition at 1 µM,KDR (VEGFR2),67%
same,inhibition at 1 µM,CSNK2A2 (CK2 alpha 2),17%
same,inhibition at 1 µM,RPS6KB1 (p70S6K),12%
same,inhibition at 1 µM,FGFR4,22%
same,inhibition at 1 µM,ROCK2,4%
same,inhibition at 1 µM,FRAP1 (mTOR),6%
same,inhibition at 1 µM,EPHB4,21%
same,inhibition at 1 µM,PTK2 (FAK),25%
same,inhibition at 1 µM,PRKCA (PKC alpha),14%
same,inhibition at 1 µM,BTK,24%
same,inhibition at 1 µM,SNF1LK2,24%
same,inhibition at 1 µM,MAPK13 (p38 delta),20%
same,inhibition at 1 µM,AKT1 (PKB alpha),6%
same,inhibition at 1 µM,TYRO3 (RSE),60%
same,inhibition at 1 µM,MST4,61%
same,inhibition at 1 µM,MINK1,66%
same,inhibition at 1 µM,STK24 (MST3),63%
same,inhibition at 1 µM,MAP2K1 (MEK1),98%
